In ChEMBL document CHEMBL3991601, “The target landscape of clinical kinase drugs” (Science, 2017):
The source made the active and inactive calls. For most assays here, no stated cut-off is given here; in the data, actives have a measured Kd and inactives only a lower limit.

Legend:
[1] = biological target: Tyrosine-protein kinase CSK (Homo sapiens, UniProt P41240)
[2] = biological target: Mitogen-activated protein kinase kinase kinase kinase 4 (Homo sapiens, UniProt O95819)
[3] = biological target: Cyclin-dependent kinase 6 (Homo sapiens, UniProt Q00534)
Chain of Cyclin-dependent kinase 6 (Q00534 whole entry): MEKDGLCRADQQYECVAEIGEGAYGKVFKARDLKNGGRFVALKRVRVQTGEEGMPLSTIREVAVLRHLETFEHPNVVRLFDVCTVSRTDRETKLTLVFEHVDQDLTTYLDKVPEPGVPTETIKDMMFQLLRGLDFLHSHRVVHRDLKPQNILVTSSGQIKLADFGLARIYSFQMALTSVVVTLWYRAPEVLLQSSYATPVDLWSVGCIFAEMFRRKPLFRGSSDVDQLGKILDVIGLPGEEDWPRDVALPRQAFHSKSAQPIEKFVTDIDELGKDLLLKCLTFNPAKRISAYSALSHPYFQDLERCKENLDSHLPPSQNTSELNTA

[4] = biological target: Serine/threonine-protein kinase MRCK alpha (Homo sapiens, UniProt Q5VT25)
Chain of Serine/threonine-protein kinase MRCK alpha (Q5VT25 whole entry): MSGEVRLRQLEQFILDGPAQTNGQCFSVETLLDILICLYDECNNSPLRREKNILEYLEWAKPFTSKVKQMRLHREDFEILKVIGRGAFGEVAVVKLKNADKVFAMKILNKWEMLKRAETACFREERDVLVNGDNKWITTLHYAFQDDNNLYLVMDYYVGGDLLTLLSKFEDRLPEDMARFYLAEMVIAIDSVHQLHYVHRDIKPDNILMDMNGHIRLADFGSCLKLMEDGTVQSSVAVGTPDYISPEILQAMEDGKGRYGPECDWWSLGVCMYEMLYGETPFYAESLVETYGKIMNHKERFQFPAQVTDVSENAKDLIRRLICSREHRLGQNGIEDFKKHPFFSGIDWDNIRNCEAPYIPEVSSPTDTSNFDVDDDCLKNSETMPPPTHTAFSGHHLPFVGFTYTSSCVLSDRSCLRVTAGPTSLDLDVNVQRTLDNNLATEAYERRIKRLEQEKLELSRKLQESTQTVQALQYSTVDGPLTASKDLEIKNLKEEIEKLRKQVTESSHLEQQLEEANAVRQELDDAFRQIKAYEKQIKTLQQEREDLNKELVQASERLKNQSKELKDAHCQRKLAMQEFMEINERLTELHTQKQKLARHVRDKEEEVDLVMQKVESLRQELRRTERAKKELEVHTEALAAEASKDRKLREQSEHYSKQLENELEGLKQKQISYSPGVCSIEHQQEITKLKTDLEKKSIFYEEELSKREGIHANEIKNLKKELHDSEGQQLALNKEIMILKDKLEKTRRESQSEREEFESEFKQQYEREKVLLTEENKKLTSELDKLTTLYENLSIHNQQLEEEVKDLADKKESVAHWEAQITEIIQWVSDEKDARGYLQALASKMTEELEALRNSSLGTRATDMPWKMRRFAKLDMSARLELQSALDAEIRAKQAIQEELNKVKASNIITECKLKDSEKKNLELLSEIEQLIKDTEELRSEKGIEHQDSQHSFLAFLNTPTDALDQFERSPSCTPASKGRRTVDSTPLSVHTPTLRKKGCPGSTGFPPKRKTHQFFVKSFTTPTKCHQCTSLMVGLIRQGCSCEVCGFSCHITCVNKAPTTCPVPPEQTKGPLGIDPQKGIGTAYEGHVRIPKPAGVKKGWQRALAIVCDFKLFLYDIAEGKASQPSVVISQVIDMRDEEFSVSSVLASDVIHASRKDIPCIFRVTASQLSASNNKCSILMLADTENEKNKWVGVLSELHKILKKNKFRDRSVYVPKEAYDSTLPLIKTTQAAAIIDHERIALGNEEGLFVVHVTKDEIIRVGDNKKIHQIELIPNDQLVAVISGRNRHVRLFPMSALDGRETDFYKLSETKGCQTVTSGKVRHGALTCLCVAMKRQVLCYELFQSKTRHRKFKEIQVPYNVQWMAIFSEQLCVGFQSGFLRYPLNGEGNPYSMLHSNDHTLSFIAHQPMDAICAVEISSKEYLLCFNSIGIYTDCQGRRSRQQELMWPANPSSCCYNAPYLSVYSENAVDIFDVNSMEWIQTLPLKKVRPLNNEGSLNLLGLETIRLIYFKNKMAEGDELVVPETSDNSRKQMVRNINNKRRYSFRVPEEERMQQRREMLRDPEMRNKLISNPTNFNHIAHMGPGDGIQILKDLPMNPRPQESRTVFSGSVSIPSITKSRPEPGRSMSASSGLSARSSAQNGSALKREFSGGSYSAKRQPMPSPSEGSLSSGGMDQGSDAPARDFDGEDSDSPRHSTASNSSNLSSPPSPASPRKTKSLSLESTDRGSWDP

[5] = biological target: T1, NUAK family SNF1-like kinase 2 (Homo sapiens, UniProt Q9H093)
T1 sequence (Q9H093 whole entry): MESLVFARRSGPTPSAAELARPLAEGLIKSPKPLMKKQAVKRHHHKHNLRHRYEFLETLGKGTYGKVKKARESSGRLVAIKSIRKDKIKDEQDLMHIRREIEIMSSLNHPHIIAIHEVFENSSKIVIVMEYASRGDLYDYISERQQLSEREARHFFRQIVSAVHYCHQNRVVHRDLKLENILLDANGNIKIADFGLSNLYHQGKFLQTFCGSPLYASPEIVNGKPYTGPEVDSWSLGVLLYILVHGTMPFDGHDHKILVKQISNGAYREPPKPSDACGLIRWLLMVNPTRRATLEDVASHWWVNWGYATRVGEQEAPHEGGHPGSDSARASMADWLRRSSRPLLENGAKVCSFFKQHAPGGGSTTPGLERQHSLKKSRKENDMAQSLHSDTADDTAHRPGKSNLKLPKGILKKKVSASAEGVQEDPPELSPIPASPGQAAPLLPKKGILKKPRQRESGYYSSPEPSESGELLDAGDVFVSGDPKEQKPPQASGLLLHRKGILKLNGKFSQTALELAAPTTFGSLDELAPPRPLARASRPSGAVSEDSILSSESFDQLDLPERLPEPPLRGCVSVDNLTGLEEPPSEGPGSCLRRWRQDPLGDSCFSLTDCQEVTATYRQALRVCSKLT

Wee1-like protein kinase = Wee1-like protein kinase (Homo sapiens, UniProt P30291)
Chain of Wee1-like protein kinase (P30291 whole entry): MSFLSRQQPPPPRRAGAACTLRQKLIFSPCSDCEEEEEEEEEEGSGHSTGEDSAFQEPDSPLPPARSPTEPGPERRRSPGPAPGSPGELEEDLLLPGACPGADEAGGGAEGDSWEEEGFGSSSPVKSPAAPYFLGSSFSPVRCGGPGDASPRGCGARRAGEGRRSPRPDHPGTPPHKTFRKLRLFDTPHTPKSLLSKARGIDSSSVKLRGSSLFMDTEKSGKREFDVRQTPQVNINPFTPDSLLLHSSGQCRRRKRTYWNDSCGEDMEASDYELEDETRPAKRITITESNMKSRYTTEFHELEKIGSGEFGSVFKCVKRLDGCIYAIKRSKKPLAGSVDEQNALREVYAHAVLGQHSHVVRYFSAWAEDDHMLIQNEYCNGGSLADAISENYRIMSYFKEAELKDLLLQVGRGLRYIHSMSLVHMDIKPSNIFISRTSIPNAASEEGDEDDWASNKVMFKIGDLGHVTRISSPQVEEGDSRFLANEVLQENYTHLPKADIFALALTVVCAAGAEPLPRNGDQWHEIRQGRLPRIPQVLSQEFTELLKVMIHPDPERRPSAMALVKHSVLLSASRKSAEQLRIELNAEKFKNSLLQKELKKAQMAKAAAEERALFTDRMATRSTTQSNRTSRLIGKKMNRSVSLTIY

[6] = biological target: T2, Ras-related protein Rab-10 (Homo sapiens, UniProt P61026)
T2 sequence (P61026 whole entry): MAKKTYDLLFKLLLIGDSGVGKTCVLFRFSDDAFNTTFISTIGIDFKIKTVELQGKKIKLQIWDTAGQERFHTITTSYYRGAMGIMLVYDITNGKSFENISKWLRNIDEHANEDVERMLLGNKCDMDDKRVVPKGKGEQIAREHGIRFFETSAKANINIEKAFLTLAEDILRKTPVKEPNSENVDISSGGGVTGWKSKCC

[7] = biological target: T3, Serine/threonine-protein kinase PLK4 (Homo sapiens, UniProt O00444)
T3 sequence (O00444 whole entry): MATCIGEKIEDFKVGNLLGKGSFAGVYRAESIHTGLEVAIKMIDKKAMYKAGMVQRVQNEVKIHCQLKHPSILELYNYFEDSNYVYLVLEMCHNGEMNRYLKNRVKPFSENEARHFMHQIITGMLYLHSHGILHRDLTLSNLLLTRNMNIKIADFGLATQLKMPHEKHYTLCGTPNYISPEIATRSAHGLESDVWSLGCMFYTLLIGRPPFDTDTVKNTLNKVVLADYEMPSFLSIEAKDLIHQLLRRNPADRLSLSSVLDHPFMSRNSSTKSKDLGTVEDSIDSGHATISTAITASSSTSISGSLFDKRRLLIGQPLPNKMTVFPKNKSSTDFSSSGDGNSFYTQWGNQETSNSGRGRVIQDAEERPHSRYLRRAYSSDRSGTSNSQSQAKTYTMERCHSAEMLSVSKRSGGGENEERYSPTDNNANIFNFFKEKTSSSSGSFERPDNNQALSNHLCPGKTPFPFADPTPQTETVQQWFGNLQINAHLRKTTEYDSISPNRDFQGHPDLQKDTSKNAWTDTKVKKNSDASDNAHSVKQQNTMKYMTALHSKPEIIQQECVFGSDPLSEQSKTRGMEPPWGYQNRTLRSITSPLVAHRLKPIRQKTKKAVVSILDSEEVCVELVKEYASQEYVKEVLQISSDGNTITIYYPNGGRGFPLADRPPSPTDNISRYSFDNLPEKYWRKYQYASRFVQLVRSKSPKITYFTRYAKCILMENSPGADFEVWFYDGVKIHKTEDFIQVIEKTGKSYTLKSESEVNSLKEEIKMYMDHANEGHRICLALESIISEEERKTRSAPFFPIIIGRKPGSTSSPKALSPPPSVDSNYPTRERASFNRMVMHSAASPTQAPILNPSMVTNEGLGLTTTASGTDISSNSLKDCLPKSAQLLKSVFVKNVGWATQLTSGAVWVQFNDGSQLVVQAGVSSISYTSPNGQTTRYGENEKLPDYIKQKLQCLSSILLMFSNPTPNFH

[8] = biological target: T4, Phenylalanine--tRNA ligase beta subunit (Homo sapiens, UniProt Q9NSD9)
T4 sequence (Q9NSD9 whole entry): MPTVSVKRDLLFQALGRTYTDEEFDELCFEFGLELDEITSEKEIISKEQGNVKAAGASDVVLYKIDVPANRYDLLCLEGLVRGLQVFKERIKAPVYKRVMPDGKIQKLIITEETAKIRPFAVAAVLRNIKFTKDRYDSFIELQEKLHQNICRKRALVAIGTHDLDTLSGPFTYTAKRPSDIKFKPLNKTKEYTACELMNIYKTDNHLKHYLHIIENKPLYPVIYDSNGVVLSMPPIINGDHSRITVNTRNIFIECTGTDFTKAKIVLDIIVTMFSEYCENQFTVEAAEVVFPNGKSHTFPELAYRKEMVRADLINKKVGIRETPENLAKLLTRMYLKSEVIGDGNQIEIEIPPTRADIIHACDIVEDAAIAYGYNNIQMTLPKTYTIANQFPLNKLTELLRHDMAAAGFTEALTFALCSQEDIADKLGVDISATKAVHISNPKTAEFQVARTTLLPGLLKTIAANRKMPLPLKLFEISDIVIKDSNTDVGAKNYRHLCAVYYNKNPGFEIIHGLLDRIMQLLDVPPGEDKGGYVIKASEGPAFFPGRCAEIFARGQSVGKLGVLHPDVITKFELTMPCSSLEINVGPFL

Chain of Mitogen-activated protein kinase kinase kinase kinase 4 (O95819 whole entry): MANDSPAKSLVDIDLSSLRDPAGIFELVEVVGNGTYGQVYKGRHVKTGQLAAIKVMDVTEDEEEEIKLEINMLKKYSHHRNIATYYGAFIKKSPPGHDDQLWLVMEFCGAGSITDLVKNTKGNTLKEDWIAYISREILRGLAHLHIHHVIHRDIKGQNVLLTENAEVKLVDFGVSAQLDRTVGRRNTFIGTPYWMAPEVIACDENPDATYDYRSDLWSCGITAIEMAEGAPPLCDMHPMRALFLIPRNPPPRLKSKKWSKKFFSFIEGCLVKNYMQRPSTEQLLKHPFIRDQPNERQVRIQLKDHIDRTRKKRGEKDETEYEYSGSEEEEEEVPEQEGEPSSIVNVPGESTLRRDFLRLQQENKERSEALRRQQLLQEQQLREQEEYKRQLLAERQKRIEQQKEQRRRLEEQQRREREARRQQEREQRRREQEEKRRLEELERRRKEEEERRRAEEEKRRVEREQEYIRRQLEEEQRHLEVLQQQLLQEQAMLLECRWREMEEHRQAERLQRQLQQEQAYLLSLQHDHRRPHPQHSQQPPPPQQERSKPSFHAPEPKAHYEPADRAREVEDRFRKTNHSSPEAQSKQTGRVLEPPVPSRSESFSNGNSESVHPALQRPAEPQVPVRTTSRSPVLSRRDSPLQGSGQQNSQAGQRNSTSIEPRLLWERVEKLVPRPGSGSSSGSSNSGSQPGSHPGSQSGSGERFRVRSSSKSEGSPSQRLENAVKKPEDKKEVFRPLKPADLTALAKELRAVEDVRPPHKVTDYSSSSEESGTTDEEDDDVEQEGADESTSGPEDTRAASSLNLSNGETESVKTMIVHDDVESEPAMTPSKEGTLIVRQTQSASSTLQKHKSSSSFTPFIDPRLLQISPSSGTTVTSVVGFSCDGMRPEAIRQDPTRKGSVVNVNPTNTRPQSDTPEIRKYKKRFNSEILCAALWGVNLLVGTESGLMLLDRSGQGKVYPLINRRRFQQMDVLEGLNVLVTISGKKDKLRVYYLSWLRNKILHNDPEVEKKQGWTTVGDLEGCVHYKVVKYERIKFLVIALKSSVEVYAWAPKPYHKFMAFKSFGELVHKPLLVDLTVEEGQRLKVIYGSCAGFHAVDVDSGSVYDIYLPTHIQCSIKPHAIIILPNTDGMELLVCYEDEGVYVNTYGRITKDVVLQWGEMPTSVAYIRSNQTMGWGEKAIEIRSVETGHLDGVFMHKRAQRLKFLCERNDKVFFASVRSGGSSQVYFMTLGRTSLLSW
Chain of Tyrosine-protein kinase CSK (P41240 whole entry): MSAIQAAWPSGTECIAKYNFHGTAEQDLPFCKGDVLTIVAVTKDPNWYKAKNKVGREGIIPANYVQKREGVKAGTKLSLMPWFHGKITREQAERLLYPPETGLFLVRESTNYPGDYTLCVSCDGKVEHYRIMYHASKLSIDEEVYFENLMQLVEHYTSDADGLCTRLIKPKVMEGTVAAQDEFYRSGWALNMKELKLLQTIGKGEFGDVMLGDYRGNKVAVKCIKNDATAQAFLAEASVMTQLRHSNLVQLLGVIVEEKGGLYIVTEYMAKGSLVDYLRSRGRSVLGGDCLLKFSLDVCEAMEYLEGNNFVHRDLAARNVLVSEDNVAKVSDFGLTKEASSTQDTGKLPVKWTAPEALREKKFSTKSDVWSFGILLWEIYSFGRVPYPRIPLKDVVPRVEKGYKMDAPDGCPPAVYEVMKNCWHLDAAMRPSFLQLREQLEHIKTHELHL

Compound | Kd [1] | Kd [2] | Kd [3] | Kd [4] | Kd [5] | Kd (Wee1-like protein kinase) | Kd [6] | Kd [7] | Kd [8]
NC[C@@](O)(c1ccc(Cl)cc1)c1ccc(-c2cn[nH]c2)cc1 [AT-13148] | > 30 µM (inactive) | > 30 µM (inactive) | > 30 µM (inactive) | > 30 µM (inactive) | > 30 µM (inactive) | > 30 µM (inactive) | > 30 µM (inactive) | > 30 µM (inactive) | > 30 µM (inactive)
Cc1c(NC(=O)OC[C@@H]2COCCN2)cn2ncnc(Nc3ccc4c(cnn4Cc4cccc(F)c4)c3)c12 [AC-480] | > 30 µM (inactive) | > 30 µM (inactive) | > 30 µM (inactive) | > 30 µM (inactive) | > 30 µM (inactive) | > 30 µM (inactive) | > 30 µM (inactive) | > 30 µM (inactive) | > 30 µM (inactive)
C=CCN(/C=C1/C(=O)O[C@H](COC)[C@@]2(C)C1=C(O)C(=O)C1=C2[C@H](OC(C)=O)C[C@]2(C)C(=O)CC[C@@H]12)CC=C [SONOLISIB] | > 30 µM (inactive) | > 30 µM (inactive) | > 30 µM (inactive) | > 30 µM (inactive) | > 30 µM (inactive) | > 30 µM (inactive) | > 30 µM (inactive) | > 30 µM (inactive) | > 30 µM (inactive)
COc1cc(Nc2ncc(F)c(Nc3ccc4c(n3)N(COP(=O)(O)O)C(=O)C(C)(C)O4)n2)cc(OC)c1OC [FOSTAMATINIB] | > 30 µM (inactive) | > 30 µM (inactive) | > 30 µM (inactive) | > 30 µM (inactive) | > 30 µM (inactive) | > 30 µM (inactive) | > 30 µM (inactive) | 0.57 µM (active) | > 30 µM (inactive)
C[C@@H]1COC(Nc2ccc3ncnc(Nc4ccc(OCc5nccs5)c(Cl)c4)c3c2)=N1 [VARLITINIB] | > 30 µM (inactive) | > 30 µM (inactive) | > 30 µM (inactive) | > 30 µM (inactive) | > 30 µM (inactive) | > 30 µM (inactive) | > 30 µM (inactive) | > 30 µM (inactive) | > 30 µM (inactive)
COCCN1CCN(Cc2ccc(-c3n[nH]c4c3C(=O)c3c(NC(=O)NN5CCOCC5)cccc3-4)cc2)CC1 [RGB-286638] | > 30 µM (inactive) | 0.127 µM | > 30 µM (inactive) | 1.09 µM (active) | > 30 µM (inactive) | > 30 µM (inactive) | > 30 µM (inactive) | > 30 µM (inactive) | > 30 µM (inactive)
C=CC(=O)Nc1cccc(Nc2nc(Nc3ccc(N4CCN(C(C)=O)CC4)cc3OC)ncc2C(F)(F)F)c1 [ROCILETINIB] | > 30 µM (inactive) | > 30 µM (inactive) | > 30 µM (inactive) | > 30 µM (inactive) | > 30 µM (inactive) | > 30 µM (inactive) | > 30 µM (inactive) | > 30 µM (inactive) | > 30 µM (inactive)
Cc1ccc(C(=O)Nc2ccc(Oc3cc4cnn(C)c4cc3-c3cn[nH]c3)c(F)c2)c(=O)n1-c1ccc(F)cc1 [MERESTINIB] | > 30 µM (inactive) | > 30 µM (inactive) | > 30 µM (inactive) | > 30 µM (inactive) | > 30 µM (inactive) | > 30 µM (inactive) | > 30 µM (inactive) | 1.61 µM (active) | > 30 µM (inactive)
O=C(O)c1ccc2c(c1)nc(Nc1cccc(Cl)c1)c1ccncc12 [SILMITASERTIB] | > 30 µM (inactive) | > 30 µM (inactive) | > 30 µM (inactive) | > 30 µM (inactive) | > 30 µM (inactive) | > 30 µM (inactive) | > 30 µM (inactive) | > 30 µM (inactive) | > 30 µM (inactive)
Cc1c(Cn2c(C)nc3c(C(=O)O)cc(N4CCOCC4)cc32)cccc1C(F)(F)F [GSK-2636771] | > 30 µM (inactive) | > 30 µM (inactive) | > 30 µM (inactive) | > 30 µM (inactive) | > 30 µM (inactive) | > 30 µM (inactive) | > 30 µM (inactive) | > 30 µM (inactive) | > 30 µM (inactive)
NC(=O)c1ccc(N(C(N)=O)c2c(F)cccc2F)nc1-c1ccc(F)cc1F [VX-702] | > 30 µM (inactive) | > 30 µM (inactive) | > 30 µM (inactive) | > 30 µM (inactive) | > 30 µM (inactive) | > 30 µM (inactive) | > 30 µM (inactive) | > 30 µM (inactive) | > 30 µM (inactive)
S=C(NCc1ccc2c(c1)OCO2)N1CCN(c2ncnc3c2oc2ccccc23)CC1 [AMUVATINIB] | > 30 µM (inactive) | > 30 µM (inactive) | > 30 µM (inactive) | > 30 µM (inactive) | > 30 µM (inactive) | > 30 µM (inactive) | > 30 µM (inactive) | > 30 µM (inactive) | > 30 µM (inactive)
COc1cc(F)c(F)c(Nc2ccc(I)cc2F)c1NS(=O)(=O)C1(C[C@H](O)CO)CC1 [REFAMETINIB] | > 30 µM (inactive) | > 30 µM (inactive) | > 30 µM (inactive) | > 30 µM (inactive) | > 30 µM (inactive) | > 30 µM (inactive) | > 30 µM (inactive) | > 30 µM (inactive) | > 30 µM (inactive)
O[C@H]1CC[C@H](Nc2ncc3nc(Nc4c(F)cc(F)cc4F)n([C@H]4CCOC4)c3n2)CC1 [TANZISERTIB] | > 30 µM (inactive) | > 30 µM (inactive) | > 30 µM (inactive) | > 30 µM (inactive) | > 30 µM (inactive) | > 30 µM (inactive) | > 30 µM (inactive) | > 30 µM (inactive) | > 30 µM (inactive)
CCc1nc(C(N)=O)c(Nc2ccc(N3CCC(N4CCN(C)CC4)CC3)c(OC)c2)nc1NC1CCOCC1 [GILTERITINIB] | > 30 µM (inactive) | 0.202 µM (active) | > 30 µM (inactive) | > 30 µM (inactive) | > 30 µM (inactive) | > 30 µM (inactive) | > 30 µM (inactive) | 0.018 µM | > 30 µM (inactive)
